# Calls of active or inactive are those of the source. The calls are words filed in the database; no cut-off is given here.
# What was measured:
# [1] = biological target: T1, Peroxisome proliferator-activated receptor delta (Homo sapiens, UniProt Q03181); test: Agonist activity at PPARbeta (unknown origin) incubated for 3 to 16 hrs by pathhunter nuclear hormone receptor assay
# T1 sequence (Q03181 whole entry): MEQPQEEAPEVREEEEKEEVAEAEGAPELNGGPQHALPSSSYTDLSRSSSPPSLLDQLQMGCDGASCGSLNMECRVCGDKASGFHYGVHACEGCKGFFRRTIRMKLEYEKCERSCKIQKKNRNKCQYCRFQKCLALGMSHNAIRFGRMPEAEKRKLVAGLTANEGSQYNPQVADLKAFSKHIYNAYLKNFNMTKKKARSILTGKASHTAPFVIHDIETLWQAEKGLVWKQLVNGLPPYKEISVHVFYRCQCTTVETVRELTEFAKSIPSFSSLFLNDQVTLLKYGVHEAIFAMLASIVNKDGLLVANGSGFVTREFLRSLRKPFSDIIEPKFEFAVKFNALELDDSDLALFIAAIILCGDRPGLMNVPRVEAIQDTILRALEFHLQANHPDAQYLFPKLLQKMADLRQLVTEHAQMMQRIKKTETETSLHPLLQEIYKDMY
# [2] = biological target: T2, Peroxisome proliferator-activated receptor gamma (Homo sapiens, UniProt P37231); test: Agonist activity at PPARgamma (unknown origin) incubated for 3 to 16 hrs by pathhunter nuclear hormone receptor assay
# T2 sequence (P37231 whole entry): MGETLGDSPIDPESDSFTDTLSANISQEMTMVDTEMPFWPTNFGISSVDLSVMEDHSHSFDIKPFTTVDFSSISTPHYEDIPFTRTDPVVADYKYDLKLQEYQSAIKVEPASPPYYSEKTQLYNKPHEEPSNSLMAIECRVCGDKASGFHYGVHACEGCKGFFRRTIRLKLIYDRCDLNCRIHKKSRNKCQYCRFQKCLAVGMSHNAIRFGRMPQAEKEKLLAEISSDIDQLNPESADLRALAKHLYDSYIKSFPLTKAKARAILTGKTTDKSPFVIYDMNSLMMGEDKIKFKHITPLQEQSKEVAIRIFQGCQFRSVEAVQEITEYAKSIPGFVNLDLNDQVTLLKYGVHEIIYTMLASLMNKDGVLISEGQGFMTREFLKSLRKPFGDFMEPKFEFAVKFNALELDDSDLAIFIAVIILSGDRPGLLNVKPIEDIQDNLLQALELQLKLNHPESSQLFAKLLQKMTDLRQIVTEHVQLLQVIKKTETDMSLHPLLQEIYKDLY
# [3] = biological target: T3, Peroxisome proliferator-activated receptor delta (Homo sapiens) (UniProt Q03181); test: Agonist activity at PPARbeta (unknown origin) incubated for 3 to 16 hrs by pathhunter nuclear hormone receptor assay relative to L-165,041
# T3 sequence (whole entry): T1 sequence (Q03181 whole entry)
# [4] = Stability in rat plasma assessed as remaining compound incubated for 2 hrs; assay type: ADME, cell-free; settings: read-out: Stability
# [5] = Protein binding in human plasma at 2 uM incubated for 4 hrs by LC-MS/MS analysis; assay type: ADME, cell-free
# [6] = Protein binding in rat plasma at 2 uM incubated for 4 hrs by LC-MS/MS analysis; assay type: ADME, cell-free
# [7] = Apparent permeability across basolateral to apical side in human Caco2 cells at 2 uM incubated for 120 mins by LC-MS/MS analysis; assay type: ADME, cell-based; settings: Caco-2
# [8] = Efflux ratio of apparent permeability across basolateral to apical over apical to basolateral side in human Caco2 cells at 2 uM incubated for 120 mins by LC-MS/MS analysis; assay type: ADME, cell-based; settings: Caco-2
# Cytochrome P450 2C19 = Cytochrome P450 2C19 (Homo sapiens, UniProt P33261); test: Inhibition of CYP2C19 in human liver microsomes using S-mephenytoin as substrate incubated for 10 mins followed by substrate addition further incubated for 10 mins by LC-MS/MS analysis; assay type: ADME
# Cytochrome P450 2D6 = Cytochrome P450 2D6 (Homo sapiens, UniProt P10635); test: Inhibition of CYP2D6 in human liver microsomes using dextromethorphan as substrate incubated for 10 mins followed by substrate addition further incubated for 10 mins by LC-MS/MS analysis; assay type: ADME
# Cytochrome P450 3A4 = Cytochrome P450 3A4 (Homo sapiens, UniProt P08684); test: Inhibition of CYP3A4 in human liver microsomes using midazolam as substrate incubated for 10 mins followed by substrate addition further incubated for 10 mins by LC-MS/MS analysis; assay type: ADME
# [9] = biological target: Voltage-gated inwardly rectifying potassium channel KCNH2 (Homo sapiens, UniProt Q12809); test: Inhibition of human ERG expressed in CHO-K1 cells by whole-cell patch clamp assay; assay type: cell-based
# [10] = Volume of distribution at steady state in C57BL/6J mouse at 1 mg/kg, iv measured upto 24 hrs by LC-MS/MS analysis; assay type: ADME, organism-based; settings: in vivo, read-out: Vdss
# [11] = Half life in C57BL/6J mouse at 1 mg/kg, iv measured upto 24 hrs by LC-MS/MS analysis; assay type: ADME, organism-based; settings: in vivo
# [12] = AUC (0 to last) in C57BL/6J mouse at 10 mg/kg, po measured upto 24 hrs by LC-MS/MS analysis; assay type: ADME, organism-based; set-up: dose 10 mg/kg, route oral, time 0 - last; settings: in vivo
# [13] = Cmax in C57BL/6J mouse at 10 mg/kg, po measured upto 24 hrs by LC-MS/MS analysis; assay type: ADME, organism-based; set-up: dose 10 mg/kg, route oral; settings: in vivo
# [14] = Tmax in C57BL/6J mouse at 10 mg/kg, po measured upto 24 hrs by LC-MS/MS analysis; assay type: ADME, organism-based; settings: in vivo
# [15] = Volume of distribution at steady state in Sprague-Dawley rat at 1 mg/kg, iv measured upto 24 hrs by LC-MS/MS analysis; assay type: ADME, organism-based; settings: in vivo, read-out: Vdss
# [16] = Half life in Sprague-Dawley rat at 1 mg/kg, iv measured upto 24 hrs by LC-MS/MS analysis; assay type: ADME, organism-based; settings: in vivo
# [17] = AUC (0 to last) in Sprague-Dawley rat at 10 mg/kg, po measured upto 24 hrs by LC-MS/MS analysis; assay type: ADME, organism-based; set-up: dose 10 mg/kg, route oral, time 0 - last; settings: in vivo
# [18] = Cmax in Sprague-Dawley rat at 10 mg/kg, po measured upto 24 hrs by LC-MS/MS analysis; assay type: ADME, organism-based; set-up: dose 10 mg/kg, route oral; settings: in vivo
# [19] = Tmax in Sprague-Dawley rat at 10 mg/kg, po measured upto 24 hrs by LC-MS/MS analysis; assay type: ADME, organism-based; settings: in vivo
# Rattus norvegicus [20] = test: Hepatoprotective activity in Sprague-Dawley rat assessed as reduction in ANIT-stimulated total bilirubin level at 3 mg/kg, ig administered for 8 days by biochemical analysis; assay type: functional, organism-based
# Rattus norvegicus [21] = test: Hepatoprotective activity in Sprague-Dawley rat assessed as reduction in ANIT-stimulated inflammatory score at 3 mg/kg, ig administered for 8 days by hematoxylin and eosin staining based mopho-metric analysis relative to control; assay type: functional; set-up: scale not given: the % may be the effect or the level left
# [22] = Oral bioavailability in C57BL/6J mouse at 10 mg/kg upto 24 hrs by LC-MS/MS analysis; settings: in vivo
# [23] = Oral bioavailability in Sprague-Dawley rat at 10 mg/kg measured upto 24 hrs by LC-MS/MS analysis; settings: in vivo
# Sequence of Voltage-gated inwardly rectifying potassium channel KCNH2 (Q12809 whole entry): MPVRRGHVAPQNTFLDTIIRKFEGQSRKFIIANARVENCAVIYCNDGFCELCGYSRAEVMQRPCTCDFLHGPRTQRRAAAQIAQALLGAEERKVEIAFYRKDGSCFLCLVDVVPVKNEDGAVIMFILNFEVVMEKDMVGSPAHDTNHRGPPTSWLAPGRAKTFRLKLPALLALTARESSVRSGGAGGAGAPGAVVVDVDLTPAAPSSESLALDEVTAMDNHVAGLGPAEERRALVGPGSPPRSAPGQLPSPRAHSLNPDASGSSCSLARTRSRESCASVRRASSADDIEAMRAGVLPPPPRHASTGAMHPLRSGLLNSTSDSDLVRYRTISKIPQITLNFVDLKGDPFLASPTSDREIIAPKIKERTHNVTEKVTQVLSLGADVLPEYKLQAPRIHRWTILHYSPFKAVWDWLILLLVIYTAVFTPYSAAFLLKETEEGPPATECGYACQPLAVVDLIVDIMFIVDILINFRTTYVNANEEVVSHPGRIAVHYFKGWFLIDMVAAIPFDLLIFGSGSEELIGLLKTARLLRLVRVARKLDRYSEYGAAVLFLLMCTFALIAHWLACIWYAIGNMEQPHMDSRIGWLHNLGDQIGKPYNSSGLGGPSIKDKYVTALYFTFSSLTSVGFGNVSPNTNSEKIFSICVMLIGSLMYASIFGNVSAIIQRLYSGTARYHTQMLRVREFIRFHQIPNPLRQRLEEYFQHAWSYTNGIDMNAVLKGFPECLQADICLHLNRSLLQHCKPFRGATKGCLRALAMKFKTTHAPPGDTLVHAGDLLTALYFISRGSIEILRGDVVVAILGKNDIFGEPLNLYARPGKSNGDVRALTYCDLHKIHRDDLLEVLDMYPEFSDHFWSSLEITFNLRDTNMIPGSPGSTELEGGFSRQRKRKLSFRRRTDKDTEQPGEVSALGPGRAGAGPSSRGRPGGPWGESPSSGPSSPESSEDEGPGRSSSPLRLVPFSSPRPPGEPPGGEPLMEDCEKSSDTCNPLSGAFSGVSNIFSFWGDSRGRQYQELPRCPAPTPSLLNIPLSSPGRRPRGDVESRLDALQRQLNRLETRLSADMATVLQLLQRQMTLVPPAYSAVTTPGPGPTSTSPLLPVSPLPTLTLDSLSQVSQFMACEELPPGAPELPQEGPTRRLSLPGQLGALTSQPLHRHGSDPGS
# Sequence of Cytochrome P450 2D6 (P10635 whole entry): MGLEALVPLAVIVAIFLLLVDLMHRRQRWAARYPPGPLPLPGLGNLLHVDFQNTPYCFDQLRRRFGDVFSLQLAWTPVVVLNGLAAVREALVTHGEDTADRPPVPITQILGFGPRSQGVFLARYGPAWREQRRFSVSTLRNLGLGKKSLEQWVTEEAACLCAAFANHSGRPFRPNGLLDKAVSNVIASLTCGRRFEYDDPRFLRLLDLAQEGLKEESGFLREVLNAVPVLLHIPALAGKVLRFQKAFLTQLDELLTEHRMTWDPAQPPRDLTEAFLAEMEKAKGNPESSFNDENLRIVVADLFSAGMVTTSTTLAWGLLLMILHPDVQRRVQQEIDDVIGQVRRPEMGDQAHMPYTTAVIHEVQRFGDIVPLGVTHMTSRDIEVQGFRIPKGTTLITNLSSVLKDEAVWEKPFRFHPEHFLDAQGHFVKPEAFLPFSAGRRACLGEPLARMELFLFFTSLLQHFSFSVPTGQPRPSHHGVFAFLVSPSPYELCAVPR
# Sequence of Cytochrome P450 3A4 (P08684 whole entry): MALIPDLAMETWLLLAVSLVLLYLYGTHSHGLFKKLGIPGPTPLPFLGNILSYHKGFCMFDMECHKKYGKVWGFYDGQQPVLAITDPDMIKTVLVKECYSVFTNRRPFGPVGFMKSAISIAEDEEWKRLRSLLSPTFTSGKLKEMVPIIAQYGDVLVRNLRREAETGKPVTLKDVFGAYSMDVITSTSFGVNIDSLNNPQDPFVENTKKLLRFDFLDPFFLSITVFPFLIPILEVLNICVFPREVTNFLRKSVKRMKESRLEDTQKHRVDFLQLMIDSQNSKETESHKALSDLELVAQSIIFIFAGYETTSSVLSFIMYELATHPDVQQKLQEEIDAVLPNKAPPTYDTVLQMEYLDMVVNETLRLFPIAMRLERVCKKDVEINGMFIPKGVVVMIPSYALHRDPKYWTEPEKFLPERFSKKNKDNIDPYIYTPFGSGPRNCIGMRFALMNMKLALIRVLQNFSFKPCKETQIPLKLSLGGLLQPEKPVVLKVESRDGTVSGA
# Sequence of Cytochrome P450 2C19 (P33261 whole entry): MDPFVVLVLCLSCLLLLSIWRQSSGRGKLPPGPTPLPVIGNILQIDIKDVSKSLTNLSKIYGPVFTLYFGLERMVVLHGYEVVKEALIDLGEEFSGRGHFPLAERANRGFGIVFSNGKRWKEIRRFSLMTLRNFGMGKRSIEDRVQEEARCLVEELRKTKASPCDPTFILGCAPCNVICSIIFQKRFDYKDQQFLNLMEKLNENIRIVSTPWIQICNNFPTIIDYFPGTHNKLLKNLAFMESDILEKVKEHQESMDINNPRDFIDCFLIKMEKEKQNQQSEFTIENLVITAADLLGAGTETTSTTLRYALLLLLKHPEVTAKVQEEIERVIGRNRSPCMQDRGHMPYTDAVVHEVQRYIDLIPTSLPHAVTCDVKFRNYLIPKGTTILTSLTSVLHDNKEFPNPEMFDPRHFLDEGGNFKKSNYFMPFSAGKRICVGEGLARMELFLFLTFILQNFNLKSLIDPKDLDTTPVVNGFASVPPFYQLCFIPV
smiles,measurement,setting,value
Cc1cc(Cc2cc(-c3ccc(Br)cc3)on2)cc(C)c1OC(C)(C)C(=O)O,EC50,[1],0.005 µM
same,EC50,[2],2.94 µM
same,Activity,[3],79%
same,remaining at 2 h,[4],96%
same,"fraction unbound at 4 h, 2 µM",[5],< 0.001
same,"fraction unbound at 4 h, 2 µM",[6],< 0.001
same,"Papp B→A at 2 h, 2 µM",[7],0.2 ×10⁻⁶ cm/s
same,"efflux ratio at 2 h, 2 µM",[8],0.4
same,IC50,Cytochrome P450 2C19,> 50 µM
same,IC50,Cytochrome P450 2D6,> 50 µM
same,IC50,Cytochrome P450 3A4,> 50 µM
same,IC50,[9],> 30 µM
same,Vd,[10],0.53 L/kg
same,half-life,[11],3.6 h
same,AUC(0-t) at 24 h,[12],63.2 µM·h
same,Cmax,[13],52 µM
same,Tmax,[14],0.33 h
same,Vd,[15],0.16 L/kg
same,half-life,[16],6 h
same,AUC(0-t) at 24 h,[17],561 µM·h
same,Cmax,[18],65.3 µM
same,Tmax,[19],1.33 h
same,Activity,Rattus norvegicus [20],Active
same,Activity,Rattus norvegicus [21],30%
same,bioavailability,[22],59.8%
same,bioavailability,[23],53.3%

# Source: ChEMBL document CHEMBL4304783, “Discovery of a Novel Selective Dual Peroxisome Proliferator-Activated Receptor α/δ Agonist for the Treatment of Primary Biliary Cirrhosis” (ACS Med Chem Lett, 2019)
